≈ marks a conversion by molar mass, not a printed value.

What is called kinetic solubility is the concentration staying in solution when a stock, usually in DMSO, is diluted into the medium.

The conditions of the series: buffer; pH 7.4; 200.0 µM.
`Cc1ccc(SCCNCc2ccco2)cc1.Cl` registered a kinetic solubility of 27.9 µg/mL.
In turn, `O=C(c1ccccc1)c1cnc[nH]1` showed a solubility (kinetic) of 25.6 µg/mL (≈ 149 µM).
In turn, `COc1ccc(C(=O)NC23CC4CC(CC(C4)C2)C3)cc1OC` displayed a kinetic solubility of 2.9 µg/mL (≈ 9.19 µM).
In the case of `COc1ccc(-c2nc(C)ncc2-c2ccc(Cl)cc2)c(O)c1` it was less than 0.3 µg/mL.
To `Cc1ccccc1OCC(=O)NCC(c1ccco1)N1CCCCC1` (stereo not given) belongs 40.1 µg/mL (≈ 117 µM); to `O=C(NNC(=S)NC1CC2C=CC1C2)c1cccnc1` (stereo not given), more than 43.3 µg/mL; to `CC(C)(C)n1cnc2cc(NC(=O)c3ccc(Cl)cc3)ccc21`, 33.4 µg/mL (≈ 102 µM).
For `Clc1ccc(-c2nc3ccccc3[nH]2)cn1`, the kinetic solubility came out at 31.8 µg/mL (≈ 138 µM).
To `O=C(NCc1ccco1)c1ccc2nccnc2c1` belongs more than 38 µg/mL.
To `CC(C(=O)c1c[nH]c2ccccc12)N1CCOCC1` (stereo not given) belongs more than 38.7 µg/mL; to `CC1(C)CC(=O)C=C(NCc2cccc(C(F)(F)F)c2)C1`, more than 44.6 µg/mL; to `CCOc1ccc(NC(=S)NC(=O)C2CCCC2)cc1`, 1 µg/mL (≈ 3.42 µM).
As to `Cc1ccc(C(=O)Nc2ccc(C(=O)N3CCCCC3)cc2)o1`, the kinetic solubility is more than 46.9 µg/mL.
In turn, `Cn1c(O)c(/C=C2\C=Nc3ccc(Br)cc32)c(=O)n(C)c1=O` displayed a kinetic solubility of 0.9 µg/mL (≈ 2.48 µM).
Turning to `O=C(Cc1ccccc1)Nc1c(Cl)ccc2nsnc12`, the kinetic solubility came to 4.9 µg/mL (≈ 16.1 µM).
`N#Cc1ccc(S(=O)(=O)NC2CC2)cc1` displayed a solubility (kinetic) of more than 33.3 µg/mL.
Compound `Cc1ccc(-c2cn3cc(C)ccc3n2)cc1` displayed a kinetic solubility of 1.6 µg/mL (≈ 7.2 µM).
The compound `CC(NC(=O)c1ccco1)C12CC3CC(CC(C3)C1)C2` (stereo not given) registered a kinetic solubility of more than 41 µg/mL.
In the case of `O=C(Nc1nccs1)c1cc([N+](=O)[O-])ccc1Cl` it was 3.7 µg/mL (≈ 13 µM).
To `CC(=O)Nc1ccc(NC(=O)Nc2cc(C)cc(C)c2)cc1` belongs 0.8 µg/mL (≈ 2.69 µM); to `O=C(CNC(=O)c1ccccc1F)OCC(=O)c1ccc(Cl)s1`, more than 53.4 µg/mL; to `CC(C#N)OC(=O)c1cccnc1SCC(=O)Nc1ccc2c(c1)OCO2` (stereo not given), 20.8 µg/mL (≈ 54 µM).
In the case of `Cc1ccc(NC(=S)NCc2ccco2)c(C)c1`, the solubility (kinetic) was more than 39.1 µg/mL.
In the case of `Cn1c(SCc2ccc([N+](=O)[O-])cc2)nnc1-c1ccncc1` it was more than 49.1 µg/mL.
Turning to `CCC1SC(=Nc2cccc(C)c2)NC1=O` (stereo not given), the solubility (kinetic) was more than 35.1 µg/mL.
To `CC(C)(C)c1ccc(C(=O)NC(=O)CSc2n[nH]c(N)n2)cc1` belongs more than 50 µg/mL; to `O=C(Nc1cccc(Cl)c1)c1cnccn1`, 26.5 µg/mL (≈ 113 µM); to `CN1CCN(C(=O)c2cc(=O)c3cc(Cl)cc(Cl)c3o2)CC1`, 50.5 µg/mL (≈ 148 µM).
For `CC(=O)Nc1ccc(C(=S)NCC2(N(C)C)CCCCC2)cc1`, the kinetic solubility was determined as 21.1 µg/mL (≈ 63.3 µM).
To `COC(=O)c1scc(S(=O)(=O)C(C)(C)C)c1-n1cccc1` belongs 35.6 µg/mL (≈ 109 µM); to `C/C=C/c1ccc(OCc2cc(=O)n3cc(C)ccc3n2)c(OC)c1`, 9.1 µg/mL (≈ 27.1 µM).
As for `COC(=O)CSc1nc(N)c(C#N)c(-c2ccc(O)cc2)c1C#N`, the kinetic solubility was 0.6 µg/mL (≈ 1.76 µM).
To `COc1cccc2cc(C(=O)NCCc3ccccc3)c(=O)oc12` belongs less than 0.7 µg/mL.
`CC1(C)c2cc(Cl)ccc2-n2c1cc(O)c(-c1ccccc1)c2=O`: the solubility (kinetic) is 47.8 µg/mL (≈ 142 µM).
Compound `O=C(NCc1ccc(Cl)cc1)c1ccncc1` gave a kinetic solubility of more than 37 µg/mL.
To `CCCCn1c(SCC(=O)N(C)C)nnc1-c1ccncc1` belongs more than 47.9 µg/mL.
Turning to `Cc1cccc2c1NC1(CCCC1)CC2C.Cl` (stereo not given), the solubility (kinetic) was less than 0.5 µg/mL.
`CCCOc1ccc(C2=CSC3=NCCN23)cc1[N+](=O)[O-]` returned a solubility (kinetic) of more than 45.8 µg/mL.
As for `CCCN1CCN(S(=O)(=O)c2ccc3c(c2)OCCO3)CC1`, the solubility (kinetic) was more than 49 µg/mL.
Compound `CCCNC(=O)NS(=O)(=O)c1ccc(Cl)cc1` displayed a solubility (kinetic) of more than 41.5 µg/mL.
Compound `Oc1ccccc1C(=S)N1CCCC1` returned a solubility (kinetic) of more than 31.1 µg/mL.
To `COP(=O)(Cc1ccc(C#N)o1)OC` belongs more than 32.3 µg/mL.
On to `O=[N+]([O-])c1ccc2nc(-c3ccccn3)[nH]c2c1`, for which the solubility (kinetic) stood at 5 µg/mL (≈ 20.8 µM).
Compound `COc1ccccc1/C=C1/C(=O)ON=C1C` registered a solubility (kinetic) of 31.3 µg/mL (≈ 144 µM).
The compound `COc1cccc(COC(=O)Nc2ccccc2F)c1` yielded a solubility (kinetic) of 18.9 µg/mL (≈ 68.7 µM).
In the case of `C=CCNC(=O)C(C)N1c2cccc3cccc(c23)S1(=O)=O` (stereo not given) it was more than 47.5 µg/mL.
In the case of `COc1cccc(Cn2c(=O)c3[nH]cnc3n(-c3ccccc3C)c2=O)c1` it was more than 54.4 µg/mL; in that of `O=C(NCc1ccco1)Nc1ccc([N+](=O)[O-])cc1`, 16.5 µg/mL (≈ 63.2 µM).
In the case of `Cc1noc(C)c1C(=O)NC(Cc1c[nH]c2ccccc12)C(=O)O` (stereo not given) it was more than 49.1 µg/mL; in that of `O=C(O)C1C2CCC(C2)C1C(=O)Nc1ccc(Cl)c(Cl)c1` (stereo not given), less than 0.7 µg/mL; in that of `CN(C)c1ccc(CN2CCC(C(N)=O)CC2)cc1.O=C(O)C(=O)O`, more than 52.7 µg/mL.
On to `CSc1ccc(/C=C/C(=O)N2CCN(c3ccccn3)CC2)cc1`, for which the kinetic solubility was determined as 2.3 µg/mL (≈ 6.78 µM).
In the case of `O=c1oc2ccccc2n1Cc1cccc(Cl)c1` it was 0.8 µg/mL (≈ 3.08 µM); in that of `Cl.O=C(/C=C/c1ccco1)OCC1CCCN2CCCCC12` (stereo not given), more than 48.9 µg/mL.
In the case of `CCCCn1nc(C(=O)N(C)CC(=O)Nc2ccc(F)c(F)c2F)ccc1=O` it was more than 59.5 µg/mL.
To `CCOc1ccc(NC(=O)CN2C(=O)CSC2=O)cc1` belongs more than 44.1 µg/mL; to `O=C(CN1C(=O)C(=O)c2ccccc21)NCCc1ccccc1`, 43.1 µg/mL (≈ 140 µM); to `O=C(Nc1ccncc1)Nc1cccc(C(F)(F)F)c1`, 5.4 µg/mL (≈ 19.2 µM).
`O=C(COc1ccc(F)cc1)N1CCCc2ccccc21` showed a kinetic solubility of 33.6 µg/mL (≈ 118 µM).
To `NS(=O)(=O)c1ccc(N2CCN(C(=O)c3ccco3)CC2)nc1` belongs more than 50.5 µg/mL.
To `CCN(C(=O)COC(=O)CCc1ccccc1)c1ccccc1` belongs 44.3 µg/mL (≈ 142 µM); to `Cc1onc(-c2ccccc2)c1CNS(=O)(=O)c1ccccc1`, 44 µg/mL (≈ 134 µM).
In the case of `CC#CC[N+](C)(C)CCCCCCCC.[Br-]` it was more than 43.5 µg/mL.
In turn, `CCc1cc(C(=O)Nc2ncccc2O)sc1C` came in with a kinetic solubility of more than 39.3 µg/mL.
In the case of `CCc1ccc(C(=O)Nc2ccc3nc(C)ccc3c2)cc1` it was less than 0.3 µg/mL; in that of `O=c1nc2n(c3ncccc13)CCCCC2`, more than 32.3 µg/mL.
`Cc1cn(CC(=O)c2ccccc2)c2ccccc12` registered a solubility (kinetic) of 1.2 µg/mL (≈ 4.81 µM).
In the case of `O=C(NC1CCCCC1)c1cc(-c2ccccc2Cl)on1` it was less than 0.3 µg/mL.
Compound `CS(=O)(=O)c1ccccc1C(=O)NC1CCCc2ccccc21` (stereo not given) returned a kinetic solubility of more than 49.4 µg/mL.
To `O=C(NC1CCC1)C1CCC(=O)N(Cc2ccccc2F)C1` (stereo not given) belongs more than 45.7 µg/mL.
In the case of `Cc1ccc(/C=C2\SC(=S)N(c3cccnc3)C2=O)cc1` it was less than 0.3 µg/mL; in that of `COc1cccc(NC(=O)CN(C)C(=O)c2c(C)noc2C)c1`, more than 47.6 µg/mL.
In the case of `C/C(=C\c1ccc(F)cc1)C(=O)c1c(C)cc(C)[nH]c1=O`, the solubility (kinetic) was 35.6 µg/mL (≈ 125 µM).
To `COc1cc(OC)cc(C(=O)N[C@H](C(=O)Nc2c(C)n(C)n(-c3ccccc3)c2=O)C(C)C)c1` belongs more than 70 µg/mL; to `O=C(CN1C(=O)CSc2ncccc21)Nc1ccccc1F`, more than 47.6 µg/mL.
In the case of `CCOC(=O)N1CCN(C(=O)c2ccc(OC)cc2)CC1` it was more than 43.9 µg/mL; in that of `CNC(=S)N1CCC(NC(=O)c2ccco2)CC1`, more than 40.1 µg/mL; in that of `NS(=O)(=O)c1ccc(CCNC(=O)c2ccc(Cl)nc2)cc1`, more than 51 µg/mL.
Turning to `Cc1ccc(NC(=O)c2cccc3cccnc23)cc1`, the kinetic solubility is 6.7 µg/mL (≈ 25.5 µM).
`O=C(Nc1ccc(F)cc1F)c1ccc(S(=O)(=O)NCc2ccco2)cc1` yielded a solubility (kinetic) of 10.5 µg/mL (≈ 26.8 µM).
With `CCC(=O)N/C(=N/c1nc(C)cc(C)n1)Nc1ccc(C)cc1`, the kinetic solubility came out at 1.7 µg/mL (≈ 5.46 µM).
The compound `COc1ccc(OC)c(NC(=O)CCC(=O)Oc2ccc(C)cc2)c1` gave a solubility (kinetic) of 49.1 µg/mL (≈ 143 µM).
In the case of `COc1cc2c(cc1OC)C(C)N(C(=O)c1cc3c(C)cc(C)cc3[nH]1)CC2` (stereo not given) it was 4.7 µg/mL (≈ 12.4 µM); in that of `CC(C[N+](C)(C)C)OC(N)=O.[Cl-]` (stereo not given), more than 29.5 µg/mL; in that of `COc1ccc(S(=O)(=O)N2CCN(CCc3ccccc3)CC2)cc1`, 1.5 µg/mL (≈ 4.16 µM).
In the case of `CC(C)NC(=O)C1=NN(c2ccccc2)C(=O)CC1` it was more than 38.9 µg/mL; in that of `CC(C)c1ccc(Nc2ccc(C(=O)O)cc2[N+](=O)[O-])cc1`, more than 45 µg/mL.
In the case of `CC(CCN1CCOCC1)c1ccccc1` (stereo not given) it was 19.3 µg/mL (≈ 88 µM); in that of `CN1C(=O)NC(c2cccc([N+](=O)[O-])c2)C2=C1CC(C)(C)CC2=O` (stereo not given), 34.6 µg/mL (≈ 105 µM); in that of `CC1CCCC(NC(=O)COC(=O)c2ccc([N+](=O)[O-])o2)C1C` (stereo not given), 18.4 µg/mL (≈ 56.7 µM).
As for `O=C(Cc1cccs1)NCCCc1ccccc1`, the kinetic solubility was more than 38.9 µg/mL.
In the case of `COc1ccc(O)c(/C=N/c2sc(C)c(C)c2C#N)c1` it was 1 µg/mL (≈ 3.49 µM); in that of `Cc1cc(NC(=O)c2cccc(C)c2[N+](=O)[O-])no1`, less than 0.2 µg/mL.
For `O=C(c1cc2cc(F)ccc2[nH]1)N1CCN(c2ccc(F)cc2)CC1`, the kinetic solubility was determined as 0.3 µg/mL (≈ 0.879 µM).
To `O=C(NCCN1CCCCC1)Nc1ccccc1F` belongs more than 39.8 µg/mL; to `Cc1ccc(NC(=O)CNC(=O)Cc2cccc3ccccc23)nc1`, 11.6 µg/mL (≈ 34.8 µM); to `COc1cc2ccccc2cc1C(=O)N1CCc2ccccc21`, 1.9 µg/mL (≈ 6.26 µM).
To `O=C(CNCc1ccc(F)cc1)Nc1ccccc1[N+](=O)[O-]` belongs 32.7 µg/mL (≈ 108 µM).
In the case of `N#Cc1cnc(SCC(=O)N2CCCC2)nc1N` it was more than 39.5 µg/mL; in that of `CCN(CC(=O)NCc1ccncc1)S(=O)(=O)c1ccccc1`, more than 50 µg/mL.
Regarding `COC(=O)c1cc(CSC(=N)N)ccc1OCCC(C)C.Cl`, the kinetic solubility is more than 52 µg/mL.
`CC1=C([N+](=O)[O-])C(c2ccc(Cl)cc2)NC(=O)N1` (stereo not given) came in with a kinetic solubility of more than 40.2 µg/mL.
Consider `Cc1ccc(S(=O)(=O)CC(=O)c2ccc([N+](=O)[O-])cc2)cc1`, for which the solubility (kinetic) was found to be 9.1 µg/mL (≈ 28.5 µM).
`Cc1sc2ncnc(N(C)C3CCCCC3)c2c1C`: the solubility (kinetic) came out at 1.1 µg/mL (≈ 3.99 µM).
`O=C(Nc1cccc(O)c1)C1CC(c2ccc(Cl)cc2)=NO1` (stereo not given) displayed a solubility (kinetic) of 2.3 µg/mL (≈ 7.26 µM).

The values above are taken from PubChem BioAssay AID1996.
